Test results taken from patent US12685732B2, “Composition for improving, preventing or treating muscular disorders including sulfonamide-based compounds” (The Industry & Academic Cooperation in Chungnam National …, priority 2022, dated 2026).

Experiments:
[1] = tested on: C2C12-PHF20/YY1-promoter-GFP cell line; assay: HTS system: GFP (green luminescence) in PHF20-overexpressing myoblasts carrying YY1 promoter-GFP; assay type: cell-based, mouse; conditions: 1 nM, 10 nM, 100 nM, 1 μM or 10 μM
Excerpt: C2C12 myoblasts, which were stable cells in which PHF20 was overexpressed, were transformed with a plasmid coexisting with a YY1 promoter and GFP, which inhibited muscle differentiation, to prepare a stable cell line. The degree of GFP signal suppression was quantified and measured, and the degree of muscle differentiation was used as a quantitative measurement index (FIG. 1).
Specifically, the C2C12-PHF20/YY1-promoter-GFP cell line according to Example 1 was dispensed in a 96-well plate at 0.5×10^5, cultured for 24 hours, and cells in a 70% confluent state were treated with 250 ng/ml of doxycycline for 24 hours, and then treated with each compound at a final concentration of 10 μM.
For fluorescence intensity, C2C12-PHF20/YY1-promoter-GFP cells were dispensed at 4×10^5 in a 6-well culture plate and cultured for 24 hours. […] Thereafter, the degree of green luminescence was confirmed using GloMax microplate readers explorer (Promega, Madison, Wisconsin, USA).

[2] = tested on: CTX-induced sarcopenia mouse model; assay: Muscle regeneration by H&E staining in CTX-induced sarcopenia mouse model; assay type: in vivo; conditions: 4 μM oral, 24 h after CTX; tissue on days 3, 6, 10; vs non-administered control
Method: (§1) In order to construct a CTX-induced sarcopenia mouse model, cardiotoxin (LATOXAN, Portes-les-Valence, France) was dissolved at 1 mg/ml in PBS to make a high-concentration stock solution. To apply to the mice, the stock solution was diluted again in PBS at a final concentration of 0.03 mg/ml and used, and intramuscularly injected into both thigh muscles of the mouse using a 1 ml syringe (24 G) to construct a sarcopenia mouse model.
Specifically, for mouse muscle tissue immunostaining, the muscle tissues of a comparative group and a sulfamethazine-treated group were fixed in 4% paraformaldehyde, washed, and fixed in paraffin. Tissues were cut to a thickness of about […], fixed to a slide, and then stained using an antibody for each muscle type.

[3] = tested on: CTX-induced sarcopenia mouse model; assay: Muscle recovery by muscle type (myosin I, IIa, IIb antibody staining) in CTX-induced sarcopenia mouse model; assay type: in vivo; conditions: 4 μM oral
Method: as §1

[4] = Body weight in CTX-induced sarcopenia mouse model; assay type: in vivo; conditions: oral 50, 100, 500 mg/kg once/day 10 days, 14 days, except decrease in all groups on day 10 without diet supply
Method: (§2) Specifically, the Rota Rod was measured before CTX injection, and after CTX was injected (day 0), the drug was orally administered once/day for 10 days, and on days 4, 9, and 14, the Rota Rod was measured, respectively.
For a total of 14 days, the body weights of the mice were measured, and any change in body weight was confirmed.
(§3) Specifically, the grip strength was measured before CTX injection, and after CTX was injected (day 0), the drug was orally administered once/day for 10 days, and on days 4, 9, and 14, the grip strength was measured, respectively.

[5] = tested on: CTX-induced sarcopenia mouse model; assay: Rota Rod balance ability in CTX-induced sarcopenia mouse model; assay type: in vivo; conditions: oral 50, 100, 500 mg/kg once/day 10 days; days 4, 9, 14; vs (+)PBS group
Method: as §2

[6] = tested on: CTX-induced sarcopenia mouse model; assay: Grip strength recovery in CTX-induced sarcopenia mouse model; assay type: in vivo; conditions: oral 50, 100, 500 mg/kg once/day 10 days, days 4, 9, 14
Method: as §3

C57BL/6J mice [7] = assay: Single oral dose toxicity: tissue weights at autopsy; assay type: in vivo, mouse; conditions: single oral 100, 500, 1000 mg/kg; male and female; day 14
Method: The body weights were measured before administration, and on 1 day, 3 days, 7 days, and 14 days after administration, and an autopsy was performed on day 14.
In the present disclosure, a single oral dose toxicity test refers to a test that qualitatively and quantitatively examines toxicity in a short period of time when a test substance was administered to test animals in a single dose (including divided doses within 24 hours).

C57BL/6J mice [8] = assay: Single oral dose toxicity: liver pathology by H&E staining; assay type: in vivo, mouse; conditions: single oral 100, 500, 1000 mg/kg; male and female; day 14
Method: As in Example 7-1, mice with single oral administration were dissected on day 14 after administration, and histochemical toxicity was evaluated. The pathology of the liver was observed through H&E staining on the dissected liver tissue.

C57BL/6J mice [9] = assay: Single oral dose toxicity: blood liver, heart and kidney toxicity markers; conditions: single oral 100, 500, 1000 mg/kg; male and female; serum day 14
Method: 7-week-old male and female C57BL/6J mice with the body weight of 20±3 g were obtained from DooYeol Biotech (Seoul, South Korea). The mice were bred under constant room temperature and 12 h night/day cycle for 1 week before the experiment, and the mice were fed with a standard rodent diet and were freely taken with water.
The collected blood was left at room temperature for 1 hour to be coagulated, and the serum was isolated by operating a centrifuge (13,000 rpm) for 20 minutes. Blood analysis was performed by dividing liver toxicity, heart toxicity, and kidney toxicity, and the analysis was conducted by requesting DooYeol Biotech (Seoul, Korea).

sulfamethazine
intensity of green fluorescence by concentration [1]: the higher the treated concentration of sulfamethazine, the weaker the intensity of fluorescence
degree of muscle differentiation / regeneration by H&E staining [2]: the muscle was regenerated compared to the control group
expression of myosin I ([3]; day 6): expression of blue-stained myosin I was increased
muscle image by myosin type staining ([3]; day 10): recovered similarly to that of a normal control group on day 0
expression of myosin IIa and myosin IIb ([3]; vs control group): increase in expressions of green myosin IIa and red myosin IIb
body weight ([4]; Rota Rod study): no change in body weight was observed
body weight ([4]; grip strength study): no change in body weight was observed
balance ability of the Rota Rod [5]: the higher the dose of sulfamethazine, the higher the balance ability of the Rota Rod
grip strength, all four paws [6]: grip strength was increased in a sulfamethazine concentration-dependent manner
grip strength, hind legs (2 paws) ([6]; vs (+)PBS group): grip strength of mice increased as the dose of sulfamethazine increased
tissue weight (C57BL/6J mice [7]): no singularity in tissue weight
liver pathology (H&E) (C57BL/6J mice [8]): no specific pathological findings were observed
blood liver toxicity, heart toxicity and kidney toxicity markers (C57BL/6J mice [9]): no specific phenomena related to liver toxicity, heart toxicity, and kidney toxicity
